Reference: patent US9617289B2, “RSV antiviral compounds” (JANSSEN R&D IRELAND, priority 2012, dated 2017)
Where a name gives a salt, the structure may show the parent alone.

What was measured:
[1] = test system: rgRSV224 virus; assay: Antiviral activity: inhibition of rgRSV224 (GFP-expressing RSV) replication in HeLa cells; format: cell-based, respiratory syncytial virus; settings: for EC50: human respiratory syncytial virus, HeLa, 72 h, read-out: pEC50, rgRSV224 (MOI=0.02) in HeLa cells, GFP expression three days post-virus exposure (converted); for pEC50: rgRSV224 (MOI=0.02) in HeLa cells, GFP expression three days post-virus exposure
Method in brief: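 HeLa cells infected with GFP-expressing rgRSV224 at MOI 0.02 alongside 4-fold compound dilutions in duplicate (0.5% DMSO). Incubated 3 days at 37 °C; EC50 taken as 50% inhibition of GFP expression by laser microscopy. CC50 measured in parallel uninfected cells by ATP content after 3 days; SI = CC50/EC50.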

| Compound | melting point [°C] | EC50 [1] [nM] | pEC50 [1] |
| --- | --- | --- | --- |
| N#CCCCn1c(CN2C(=O)C3(CCNCC3)c3ccncc32)cc2cc(Cl)ccc21 (as salt: hydrochloride) [Compound 78, 4-(5-chloro-2-((2′-oxospiro[piperidine-4,3′-pyrrolo[2,3-c]-pyridin]-1′(2′H)-yl)methyl)-1H-indol-1-yl)butanenitrile hydrochloride] | 82.02 |  |  |
| CS(=O)(=O)CCCn1c(CN2C(=O)C3(CN(CC(F)(F)F)C3)c3ccccc32)nc2cc(Cl)ccc21 [Compound 9, 1′-[[5-chloro-1-(3-methylsulfonylpropyl)benzimidazol-2-yl]methyl]-1-(2,2,2-trifluoroethyl)spiro[azetidine-3,3′-indoline]-2′-one] | 200.68 | 0.398 |  |
| CS(=O)(=O)CCCn1c(CN2C(=O)C3(CCOCC3)c3ccc(F)cc32)nc2cc(Cl)ccc21 [Compound 10, 1-((5-chloro-1-(3-(methylsulfonyl)propyl)-1H-benzo[d]-imidazol-2-yl)methyl)-6-fluoro-2′,3′,5′,6′-tetrahydro-spiro[indoline-3,4′-pyran]-2-one] | 207.14 | 2 |  |
| CS(=O)(=O)CCCn1c(CN2C(=O)C3(CC(O)C3)c3ccccc32)nc2cc(Cl)ccc21 [Compound 11, (3S)-1′-({5-chloro-1-[3-(methylsulfonyl)propyl]-1H-benzimidazol-2-yl}methyl)-3-hydroxyspiro[cyclobutane-1,3′-indol]-2′(1′H)-one] | 232.91 | 0.398 |  |
| CS(=O)(=O)CCCn1c(CN2C(=O)C3(CC(O)C3)c3ccccc32)nc2cc(Cl)ccc21 [Compound 12, (3R)-1′-({5-chloro-1-[3-(methylsulfonyl)propyl]-1H-benzimidazol-2-yl}methyl)-3-hydroxyspiro[cyclobutane-1,3′-indol]-2′(1′H)-one] | 209.84 |  | 9.3 |
| CC(C)C(=O)N1CC2(C1)C(=O)N(Cc1nc3cc(Cl)ccc3n1CCCS(C)(=O)=O)c1ccccc12 [Compound 28, 1′-({5-chloro-1-[3-(methylsulfonyl)propyl]-1H-benzimidazol-2-yl}methyl)-1-(2-methylpropanoyl)-spiro[azetidine-3,3′-indol]-2′(1′H)-one] | 133.12 | < 0.158 |  |
| CS(=O)(=O)CCCn1c(CN2C(=O)C3(CN(S(=O)(=O)C4CC4)C3)c3ccccc32)nc2cc(Cl)ccc21 [Compound 29, 1′-({5-chloro-1-[3-(methylsulfonyl)propyl]-1H-benzimidazol-2-yl}methyl)-1-(cyclopropylsulfonyl)-spiro[azetidine-3,3′-indol]-2′(1′H)-one] | 191.15 | < 0.158 |  |
| CC(=O)N1CC2(C1)C(=O)N(Cc1nc3cc(Cl)ccc3n1CCCS(C)(=O)=O)c1ccccc12 [Compound 30, 1-acetyl-1′-({5-chloro-1-[3-(methylsulfonyl)propyl]-1H-benzimidazol-2-yl}methyl)spiro[azetidine-3,3′-indol]-2′(1′H)-one] | 221.24 | 0.251 |  |
| CS(=O)(=O)CCCn1c(CN2C(=O)C3(CN(C(=O)C(F)(F)F)C3)c3ccccc32)nc2cc(Cl)ccc21 [Compound 31, 1-({5-chloro-1-[3-(methylsulfonyl)propyl]-1H-benzimidazol-2-yl}methyl)-1-(trifluoroacetyl)spiro-[azetidine-3,3′-indol]-2′(1′H)-one] | 249.58 | 3.16 |  |
| CC(=O)N1CCC2(CC1)C(=O)N(Cc1nc3cc(Cl)ccc3n1CCCS(C)(=O)=O)c1ccccc12 [Compound 32, 1′-acetyl-1-({5-chloro-1-[3-(methylsulfonyl)propyl]-1H-benzimidazol-2-yl}methyl)spiro[indole-3,4′-piperidin]-2(1H)-one] | 247.98 | 0.631 |  |
| CS(=O)(=O)CCCn1c(CN2C(=O)C3(CCN(S(=O)(=O)c4ccc(F)cc4)CC3)c3ccccc32)nc2cc(Cl)ccc21 [Compound 34, 1-({5-chloro-1-[3-(methylsulfonyl)propyl]-1H-benzimidazol-2-yl}methyl)-1′-[(4-fluorophenyl)-sulfonyl]spiro[indole-3,4′-piperidin]-2(1H)-one] | 183.97 | 1.26 |  |
| CS(=O)(=O)CCCn1c(CN2C(=O)C3(CCN(S(=O)(=O)C4CC4)CC3)c3ccccc32)nc2cc(Cl)ccc21 [Compound 35, 1-({5-chloro-1-[3-(methylsulfonyl)propyl]-1H-benzimidazol-2-yl}methyl)-1′-(cyclopropylsulfonyl)-spiro[indole-3,4′-piperidin]-2(1H)-one] | 194.85 | 0.794 |  |
| COc1ccc(S(=O)(=O)N2CCC3(CC2)C(=O)N(Cc2nc4cc(Cl)ccc4n2CCCS(C)(=O)=O)c2ccccc23)cc1 [Compound 36, 1-({5-chloro-1-[3-(methylsulfonyl)propyl]-1H-benzimidazol-2-yl}methyl)-1′-[(4-methoxyphenyl)-sulfonyl]spiro[indole-3,4′-piperidin]-2(1H)-one] | 237.33 | 0.251 |  |
| COC(=O)N1CCC2(CC1)C(=O)N(Cc1cc3cc(Cl)ccc3n1CCCS(C)(=O)=O)c1cnccc12 [Compound 55] | 234.28 | 0.0501 |  |
| CC(=O)N1CCC2(CC1)C(=O)N(Cc1cc3cc(Cl)ccc3n1CCCS(C)(=O)=O)c1cnccc12 [Compound 56, 1-acetyl-1′-({5-chloro-1-[3-(methylsulfonyl)propyl]-1H-indol-2-yl}methyl)spiro[piperidine-4,3′-pyrrolo[2,3-c]pyridin]-2′(1′H)-one] | 258.32 | 0.316 |  |
| CC(=O)N1CC2(C1)C(=O)N(Cc1cc3cc(Cl)ccc3n1CCCC#N)c1ccccc12 [Compound 62, 4-{2-[(1-acetyl-2′-oxospiro[azetidine-3,3′-indol]-1′(2′H)-yl)-methyl]-5-chloro-1H-indol-l-yl}butanenitrile] | 195.25 | 1 |  |
| CC(C)(C)OC(=O)N1CC2(C1)C(=O)N(Cc1nc3cc(Cl)ccc3n1CCCC#N)c1ccccc12 [Compound 70, tert-butyl 1′-((5-chloro-1-(3-cyanopropyl)-1H-benzo[d]-imidazol-2-yl)methyl)-2′-oxospiro[azetidine-3,3′-indoline]-1-carboxylate] | 144.1 | < 0.158 |  |
| O=C1N(Cc2nc3cc(Cl)ccc3n2CCCC(F)(F)F)c2cc(F)ccc2C12CCOCC2 [Compound 71, 1-((5-chloro-1-(4,4,4-trifluorobutyl)-1H-benzo[d]imidazol-2-yl)methyl)-6-fluoro-2′,3′,5′,6′-tetrahydrospiro[indoline-3,4′-pyran]-2-one] | 172.7 | 3.16 |  |
| CC(=O)N1CC2(C1)C(=O)N(Cc1nc3cc(Cl)ccc3n1CCCS(C)(=O)=O)c1ccccc12 [Compound 72, 1-acetyl-1′-((5-chloro-1-(3-(methylsulfonyl)propyl)-1H-benzo[d]imidazol-2-yl)methyl)spiro[azetidine-3,3′-indolin]-2′-one] | 226.51 |  | 9.6 |
| CC(C)(O)C(=O)N1CC2(C1)C(=O)N(Cc1cc3cc(Cl)ccc3n1CCCC#N)c1ccccc12 [Compound 73, 4-(5-chloro-2-((1-(2-hydroxy-2-methylpropanoyl)-2′-oxospiro[azetidine-3,3′-indolin]-1′-yl)methyl)-1H-indol-1-yl)butanenitrile] | 89.86 | 0.501 |  |
| O=C1N(Cc2nc3nc(Cl)ccc3n2CCCC(F)(F)F)c2cnccc2C12CCOCC2 [Compound 75, 1′-((5-chloro-1-(4,4,4-trifluorobutyl)-1H-imidazo[4,5-b]-pyridin-2-yl)methyl)-2,3,5,6-tetrahydrospiro[pyran-4,3′-pyrrolo[2,3-c]pyridin]-2′(1′H)-one] | 188.67 |  | 8.3 |
| N#CCCCn1c(CN2C(=O)C3(CCN(C(=O)OC4COC4)CC3)c3ccncc32)cc2cc(Cl)ccc21 [Compound 80, oxetan-3-yl 1′-((5-chloro-1-(3-cyanopropyl)-1H-indol-2-yl)-methyl)-2′-oxo-1′,2′-dihydro[spiropiperidine-4,3′-pyrrolo-[2,3-c]pyridine]-1-carboxylate] | 208.24 | < 0.158 |  |
| N#CCCCn1c(CN2C(=O)C3(CCN(S(=O)(=O)C4CC4)CC3)c3ccncc32)cc2cc(Cl)ccc21 [Compound 81, 4-(5-chloro-2-((1-(cyclopropylsulfonyl)-2′-oxospiro-[piperidine-4,3′-pyrrolo[2,3-c]pyridin]-1′(2′H)-yl)methyl)-1H-indol-1-yl)butanenitrile] | 93.04 | < 0.158 |  |
| N#CCCCn1c(CN2C(=O)C3(CCN(C(=O)OC4COC4)CC3)c3ccncc32)nc2cc(Cl)ccc21 [Compound 82, oxetan-3-yl 1′-((5-chloro-1-(3-cyanopropyl)-1H-benzo[d]-imidazol-2-yl)methyl)-2′-oxo-1′,2′-dihydrospiro[piperidine-4,3′-pyrrolo[2,3-c]pyridine]-1-carboxylate] | 203.41 | < 0.158 |  |
| CC(=O)N1CCC2(CC1)C(=O)N(Cc1nc3cc(Cl)ccc3n1CCCC#N)c1cnccc12 [Compound 83, 4-(2-((1-acetyl-2′-oxospiro[piperidine-4,3′-pyrrolo[2,3-c]-pyridin]-1′(2′H)-yl)methyl)-5-chloro-1H-benzo[d]imidazol-1-yl)butanenitrile] | 223.53 | < 0.158 |  |
| CS(=O)(=O)CCCn1c(CN2C(=O)C3(CCN(S(=O)(=O)C4CC4)CC3)c3ccncc32)nc2cc(Cl)ccc21 [Compound 85, 1′-((5-chloro-1-(3-(methylsulfonyl)propyl)-1H-benzo[d]-imidazol-2-yl)methyl)-1-(cyclopropylsulfonyl)spiro-[piperidine-4,3′-pyrrolo[2,3-c]pyridin]-2′(1′H)-one] | 150.42 | < 0.158 |  |
